What is called IC50 is the concentration needed to halve the response being measured.

From patent US5268374A, “Non-peptide renin inhibitors” (Abbott Laboratories, priority 1991, dated 1993) come the findings set out here.

One assay concerns the target T1, human renal renin (Homo sapiens, UniProt P00797).
T1 construct: from tissue; host or cells: human kidney (read from the word 'renal'; no preparation is printed)
T1 sequence (P00797 67-406): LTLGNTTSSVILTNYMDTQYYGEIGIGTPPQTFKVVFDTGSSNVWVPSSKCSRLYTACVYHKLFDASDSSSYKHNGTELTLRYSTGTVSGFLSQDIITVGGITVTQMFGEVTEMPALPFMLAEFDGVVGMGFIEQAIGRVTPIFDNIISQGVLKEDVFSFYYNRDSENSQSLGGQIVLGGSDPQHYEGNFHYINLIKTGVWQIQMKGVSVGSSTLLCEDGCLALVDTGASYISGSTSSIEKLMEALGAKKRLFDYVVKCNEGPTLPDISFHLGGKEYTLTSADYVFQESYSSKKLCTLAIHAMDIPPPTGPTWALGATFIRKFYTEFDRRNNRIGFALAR
Briefly: Inhibition of human renal renin in vitro (angiotensin I formation by radioimmunoassay). It is filed as biochemical.
Details: not given
For the molecule `CCCC[C@H](N[C@@H](Cc1ccccc1)C(=O)N1CCC(OCOC)CC1)C(=O)N[C@@H](CC1CCCCC1)[C@@H](O)C[C@H](C(=O)NCCCn1ccnc1)C(C)C` [Example 119], 3 nM corresponded to half-maximal inhibition (IC50).

The same assay, now with this note: human renal renin, 37 degrees C, pH 6.0; read-out: IC50.
Regarding `CCCC[C@H](N[C@@H](Cc1ccccc1)C(=O)N1CCOCC1)C(=O)N[C@@H](CC1CCCCC1)[C@@H](O)[C@@H](O)CC(C)C` [Example 69, N-(1(S)-(4-Morpholinylcarbonyl)-2-phenylethyl)-L-norleucyl Amide of 2(S)-Amino-1-cyclohexyl-3(R),4(S)-dihydroxy-6-methylheptane], the IC50 came out at 9 nM.

Consider `CC(C)C[C@H](O)[C@H](O)[C@H](CC1CCCCC1)NC(=O)[C@H](C)O[C@@H](Cc1ccccc1)C(=O)N1CCC1` [Example 87, 2(S)-(1(S)-(N-Azetidinylcarbonyl)-2-phenylethoxy)propionic acid Amide of 2(S)-Amino-1-cyclohexyl-3(R),4(S)-dihydroxy-6-methylheptane], for which the IC50 was 5.5 nM. The same measure, in the same setting: the value for `CC(C)C[C@H](O)[C@H](O)[C@H](CC1CCCCC1)NC(=O)[C@H](C)O[C@@H](Cc1ccccc1)C(=O)N1CCCC1` [Example 88, 2(S)-(1(S)-(N-Pyrolidinylcarbonyl)-2-phenylethoxy)propionic acid Amide of 2(S)-Amino-1-cyclohexyl-3(R),4(S)-dihydroxy-6-methylheptane] was 12 nM; that for `CC(C)C[C@H](O)[C@H](O)[C@H](CC1CCCCC1)NC(=O)[C@H](C)O[C@@H](Cc1ccccc1)C(=O)N1CCCCC1` [Example 89, 2(S)-(1(S)-(N-Piperidinylcarbonyl)-2-phenylethoxy)propionic acid Amide of 2(S)-Amino-1-cyclohexyl-3(R),4(S)-dihydroxy-6-methylheptane] was 15 nM; that for `CCCCNC(=O)[C@@H](C[C@H](O)[C@H](CC1CCCCC1)NC(=O)[C@H](C)O[C@@H](Cc1ccccc1)C(=O)N1CCOCC1)C(C)C` [Example 91, 2(S)-(1(S)-(4-Morpholinylcarbonyl)-2-phenylethoxy)propionic acid Amide of 2(S)-Amino-1-cyclohexyl-3(S)-hydroxy-5(S)-n-butylcarbamoyl-6-methylheptane] was 3.9 nM. With `CCCC[C@H](O[C@@H](Cc1ccccc1)C(=O)N1CCC(OCOC)CC1)C(=O)N[C@@H](CC1CCCCC1)[C@@H](O)[C@@H](O)CC(C)C` [Example 93, 2(S)-(1(S)-(4-(Methoxymethoxy)piperidin-1-yl-carbonyl)-2-phenylethoxy)hexanoic acid Amide of 2(S)-Amino-1-cyclohexyl-3(R),4(S)-dihydroxy-6-methylheptane], the IC50 came to 1.1 nM.

Consider `COCOC1CCN(C(=O)[C@H](Cc2ccccc2)O[C@@H](C)C(=O)N[C@@H](CC2CCCCC2)[C@@H](O)[C@@H](O)CC(C)C)CC1` [Example 94, 2(S)-(1(S)-(4-(Methoxymethoxy)piperidinyl-1-yl-carbonyl)-2-phenylethoxy)propionic acid Amide of 2(S)-Amino-1-cyclohexyl-3(R),4(S)-dihydroxy-6-methylheptane], for which the 50% inhibitory concentration (IC50) came out at 1.3 nM.

In the case of `CCCCNC(=O)[C@@H](C[C@H](O)[C@H](CC1CCCCC1)NC(=O)[C@H](CCCC)O[C@@H](Cc1ccccc1)C(=O)N1CCC(OCOC)CC1)C(C)C` [Example 96, 2(S)-(1(S)-(4-(Methoxymethoxy)piperidin-1-yl-carbonyl)-2-phenylethoxy)hexanoic acid Amide of 2(S)-Amino-1-cyclohexyl-3(S)-hydroxy-5(S)-n-butylcarbamoyl-6-methylheptane], the IC50 is 1.5 nM. On to `CCCC[C@H](O[C@@H](Cc1ccccc1)C(=O)N1CCC(OCOC)CC1)C(=O)N[C@@H](CC1CCCCC1)[C@@H](O)[C@@H]1CN(CC)C(=O)O1` [Example 108, 2(S)-(1(S)-(4-(Methoxymethoxy)piperidin-1-yl-carbonyl)-2-phenylethoxy)hexanoic acid Amide of (2's,1'R,5S)-3-Ethyl-5-(1'-hydroxy-2'-amino-3'-cyclohexylpropyl)oxazolidin-2-one], for which the 50% inhibitory concentration (IC50) was 0.87 nM. The same measure, in the same setting: the same measure for `CCCC[C@H](O[C@@H](Cc1ccccc1)C(=O)N1CCC(OCOC)CC1)C(=O)N[C@@H](CC1CCCCC1)[C@@H](O)C[C@H](C(=O)NCCCn1ccnc1)C(C)C` [Example 116, 2(S)-(1(S)-(4-(Methoxymethoxy)piperidin-1-yl)carbonyl-2-phenyl)ethoxyhexanoic acid amide of 3-(1-imidazolyl)propyl 5(S)-amino-6-cyclohexyl-4(S)-hydroxy-2(S)-isopropylhexanamide]: 1.3 nM; for `CCCC[C@H](O[C@@H](Cc1ccccc1)C(=O)N1CCC(OCOC)CC1)C(=O)N[C@@H](CC1CCCCC1)[C@@H](O)C[C@H](C(=O)NCCCN(C)C)C(C)C` [Example 117, 2(S)-(1(S)-(4-(Methoxymethoxy)piperidin-1-yl)carbonyl-2-phenyl)ethoxyhexanoic acid amide of 3-(dimethylamino)propyl 5(S)-amino-6-cyclohexyl-4(S)-hydroxy-2(S)-isopropylhexanamide]: 2.5 nM; for `CCCC[C@H](O[C@@H](Cc1ccccc1)C(=O)N1CCC(OCOC)CC1)C(=O)N[C@@H](CC1CCCCC1)[C@@H](O)CN(C)S(=O)(=O)NC` [Example 122, 2(S)-(1(S)-(4-(Methoxymethoxy)piperidin-1-yl)carbonyl-2-phenyl)ethoxyhexanoic acid amide of (2S,3S)-3-amino-4-cyclohexyl-2-hydroxy-1-(methyl(methylsulfamoyl)amino)butane]: 2.5 nM.

Regarding `CCCC[C@H](O[C@@H](Cc1ccccc1)C(=O)N1CCC(OCOC)CC1)C(=O)N[C@@H](CC1CCCCC1)[C@@H](O)C[C@H](NC(=O)OCCN(C)C)C(C)C` [Example 129], the 50% inhibitory concentration (IC50) was determined as 2.7 nM. Still for that read-out and setting: the same measure for `CCCC[C@H](O[C@@H](Cc1ccccc1)C(=O)N1CCC(OCOC)CC1)C(=O)N[C@@H](CC1CCCCC1)[C@@H](O)C[C@H](NC(=O)OCCN1CCOCC1)C(C)C` [Example 130]: 1.4 nM; for `CCCC[C@H](O[C@@H](Cc1ccccc1)C(=O)N1CCC(OCOC)CC1)C(=O)N[C@@H](CC1CCCCC1)[C@@H](O)C[C@H](NC(=O)OCCc1ccccn1)C(C)C` [Example 131]: 0.88 nM. Same read-out and setting: the value for `CCCCC(=O)N[C@@H](C[C@H](O)[C@H](CC1CCCCC1)NC(=O)[C@H](CCCC)O[C@@H](Cc1ccccc1)C(=O)N1CCC(OCOC)CC1)C(C)C` [Example 132, 2(S)-1(S)-4-(Methoxymethoxy)piperidin-1-yl)carbonyl-2-phenyl)ethoxyhexanoicacid amide of 2(S)-amino-1-cyclohexyl-5(S)-((2-(pentanoyl)amino-3(S)-hydroxy-6-methylheptane] was 3.2 nM.

Regarding `CCCC[C@H](O[C@@H](Cc1ccccc1)C(=O)N1CCC(OCOC)CC1)C(=O)N[C@@H](CC1CCCCC1)[C@@H](O)C[C@H](C(=O)NCCC[N+](C)(C)[O-])C(C)C` [Example 136], the IC50 amounted to 1.4 nM.

Take `CCCC[C@H](O[C@@H](Cc1ccccc1)C(=O)N1CCC(OCOC)CC1)C(=O)N[C@@H](CC1CCCCC1)[C@@H](O)[C@@H](O)CN(C)OC` [Example 139]: the 50% inhibitory concentration (IC50) is 2.7 nM. On the same count and under the same terms, the value for `CCCC[C@H](O[C@@H](Cc1ccccc1)C(=O)N1CCC(OCOC)CC1)C(=O)N[C@@H](CC1CCCCC1)[C@@H](O)CN(C(C)C)S(=O)(=O)NC` [Example 142, 2(S)-(1(S)-(4-(Methoxymethoxy)piperidin-1-yl)carbonyl-2-phenyl)ethoxyhexanoic acid amide of (2S,3S)-3-amino-4-cyclohexyl-2-hydroxy-1-(isopropyl(methylsulfamoyl)amino)butane] was 1.3 nM; that for `CCCC[C@H](O[C@@H](Cc1ccccc1)C(=O)N1CCC(OCOC)CC1)C(=O)N[C@@H](CC1CCCCC1)[C@@H](O)C(F)(F)[C@H](O)C(C)C` [Example 179] was 4.6 nM; that for `CCCC[C@H](O[C@@H](Cc1ccccc1)C(=O)N1CCC(OCOC)CC1)C(=O)N[C@@H](CC(C)C)[C@@H](O)CC(=O)NCC(C)CC` (some centres unmarked) [Example 180] was 3.8 nM. In the case of `CCCC[C@H](N[C@@H](Cc1ccccc1)C(=O)N1CCC(OCOC)CC1)C(=O)N[C@@H](CC1CCCCC1)[C@H](O)CC(C(=O)N[C@H](C(=O)NCc1ccccn1)[C@@H](C)CC)C(C)C` (some centres unmarked) [Example 181], the half-maximal inhibitory concentration (IC50) was 1.8 nM.
